# ChEMBL document CHEMBL3885881, “DrugMatrix”
# Species on record: Rattus norvegicus
# Test: DrugMatrix - Regimen: Daily Repeat
# Type: toxicity, organism-based, Sprague-Dawley
# Parameters: regimen Daily Repeat, gender Male, age 6-8 weeks
# Conditions: in vivo, iv, 31 mg/kg, dose level Low, vehicle 100 % SALINE; for ABSOLUTE BASOPHIL / ABSOLUTE EOSINOPHIL / ABSOLUTE LYMPHOCYTE / ABSOLUTE MONOCYTE / ABSOLUTE SEGMENTED NEUTROPHIL / BASOPHIL / EOSINOPHIL / ERYTHROCYTE COUNT / HEMATOCRIT / HEMOGLOBIN / LEUKOCYTE COUNT / LYMPHOCYTE / MEAN CORPUSCULAR HEMOGLOBIN / MEAN CORPUSCULAR HEMOGLOBIN CONCENTRATION / MEAN CORPUSCULAR VOLUME / MONOCYTE / NEUTROPHIL / NUCLEATED RED BLOOD CELLS / PLATELET COUNT: tissue Blood; for ALANINE AMINOTRANSFERASE / ALBUMIN / ALKALINE PHOSPHATASE / ASPARTATE AMINOTRANSFERASE / BLOOD UREA NITROGEN / CARBON DIOXIDE / CHLORIDE / CHOLESTEROL / CREATINE PHOSPHOKINASE / CREATININE / GLUCOSE / LACTATE DEHYDROGENASE / LIPASE / PHOSPHORUS / POTASSIUM / SODIUM / TOTAL BILIRUBIN / TOTAL PROTEIN / URIC ACID: tissue Plasma
compound,measurement,setting,value
Cc1cn[nH]c1 [FOMEPIZOLE],ABSOLUTE BASOPHIL,"72 h, time 3 day",0 CELLS/uL
same,ABSOLUTE EOSINOPHIL,"72 h, time 3 day",41 CELLS/uL
same,ABSOLUTE LYMPHOCYTE,"72 h, time 3 day",12783.33 CELLS/uL
same,ABSOLUTE MONOCYTE,"72 h, time 3 day",137 CELLS/uL
same,ABSOLUTE SEGMENTED NEUTROPHIL,"72 h, time 3 day",738.67 CELLS/uL
same,BASOPHIL,"72 h, time 3 day",0%
same,EOSINOPHIL,"72 h, time 3 day",0.33%
same,ERYTHROCYTE COUNT,"72 h, time 3 day",5.82 x10E6/uL
same,HEMATOCRIT,"72 h, time 3 day",35.33%
same,HEMOGLOBIN,"72 h, time 3 day",13.87 G/DL
same,LEUKOCYTE COUNT,"72 h, time 3 day",13.7 x10E3/uL
same,LYMPHOCYTE,"72 h, time 3 day",93.33%
same,MEAN CORPUSCULAR HEMOGLOBIN,"72 h, time 3 day",23.83 pg
same,MEAN CORPUSCULAR HEMOGLOBIN CONCENTRATION,"72 h, time 3 day",39.27 G/DL
same,MEAN CORPUSCULAR VOLUME,"72 h, time 3 day",60.67 fL
same,MONOCYTE,"72 h, time 3 day",1%
same,NEUTROPHIL,"72 h, time 3 day",5.33%
same,NUCLEATED RED BLOOD CELLS,"72 h, time 3 day",0 /100WBC
same,PLATELET COUNT,"72 h, time 3 day",1326.67 x10E3/uL
same,ALANINE AMINOTRANSFERASE,"72 h, time 3 day",46.33 u/L
same,ALBUMIN,"72 h, time 3 day",4.27 G/DL
same,ALKALINE PHOSPHATASE,"72 h, time 3 day",429.67 u/L
same,ASPARTATE AMINOTRANSFERASE,"72 h, time 3 day",79 u/L
same,BLOOD UREA NITROGEN,"72 h, time 3 day",14.67 mg/dL
same,CARBON DIOXIDE,"72 h, time 3 day",23.67 mmol/L
same,CHLORIDE,"72 h, time 3 day",103.67 MEQ/L
same,CHOLESTEROL,"72 h, time 3 day",67.67 mg/dL
same,CREATINE PHOSPHOKINASE,"72 h, time 3 day",240.33 u/L
same,CREATININE,"72 h, time 3 day",0.15 mg/dL
same,GLUCOSE,"72 h, time 3 day",166.33 mg/dL
same,LACTATE DEHYDROGENASE,"72 h, time 3 day",139.67 u/L
same,LIPASE,"72 h, time 3 day",9.33 u/L
same,PHOSPHORUS,"72 h, time 3 day",13.53 mg/dL
same,POTASSIUM,"72 h, time 3 day",6.4 MEQ/L
same,SODIUM,"72 h, time 3 day",147.03 MEQ/L
same,TOTAL BILIRUBIN,"72 h, time 3 day",0.2 mg/dL
same,TOTAL PROTEIN,"72 h, time 3 day",5.77 G/DL
same,URIC ACID,"72 h, time 3 day",1.67 mg/dL
same,ABSOLUTE BASOPHIL,"120 h, time 5 day",0 CELLS/uL
same,ABSOLUTE EOSINOPHIL,"120 h, time 5 day",0 CELLS/uL
same,ABSOLUTE LYMPHOCYTE,"120 h, time 5 day",17243.67 CELLS/uL
same,ABSOLUTE MONOCYTE,"120 h, time 5 day",226 CELLS/uL
same,ABSOLUTE SEGMENTED NEUTROPHIL,"120 h, time 5 day",1697 CELLS/uL
same,BASOPHIL,"120 h, time 5 day",0%
same,EOSINOPHIL,"120 h, time 5 day",0%
same,ERYTHROCYTE COUNT,"120 h, time 5 day",5.34 x10E6/uL
same,HEMATOCRIT,"120 h, time 5 day",34.37%
same,HEMOGLOBIN,"120 h, time 5 day",13.8 G/DL
same,LEUKOCYTE COUNT,"120 h, time 5 day",19.17 x10E3/uL
same,LYMPHOCYTE,"120 h, time 5 day",89.67%
same,MEAN CORPUSCULAR HEMOGLOBIN,"120 h, time 5 day",25.9 pg
same,MEAN CORPUSCULAR HEMOGLOBIN CONCENTRATION,"120 h, time 5 day",40.17 G/DL
same,MEAN CORPUSCULAR VOLUME,"120 h, time 5 day",64.4 fL
same,MONOCYTE,"120 h, time 5 day",1.33%
same,NEUTROPHIL,"120 h, time 5 day",9%
same,NUCLEATED RED BLOOD CELLS,"120 h, time 5 day",0 /100WBC
same,PLATELET COUNT,"120 h, time 5 day",1415 x10E3/uL
same,ALANINE AMINOTRANSFERASE,"120 h, time 5 day",63.33 u/L
same,ALBUMIN,"120 h, time 5 day",4.27 G/DL
same,ALKALINE PHOSPHATASE,"120 h, time 5 day",350 u/L
same,ASPARTATE AMINOTRANSFERASE,"120 h, time 5 day",91 u/L
same,BLOOD UREA NITROGEN,"120 h, time 5 day",15.33 mg/dL
same,CARBON DIOXIDE,"120 h, time 5 day",21.67 mmol/L
same,CHLORIDE,"120 h, time 5 day",103.33 MEQ/L
same,CHOLESTEROL,"120 h, time 5 day",77 mg/dL
same,CREATINE PHOSPHOKINASE,"120 h, time 5 day",195 u/L
same,CREATININE,"120 h, time 5 day",0.2 mg/dL
same,GLUCOSE,"120 h, time 5 day",155.67 mg/dL
same,LACTATE DEHYDROGENASE,"120 h, time 5 day",131 u/L
same,LIPASE,"120 h, time 5 day",10.67 u/L
same,PHOSPHORUS,"120 h, time 5 day",13.77 mg/dL
same,POTASSIUM,"120 h, time 5 day",6.85 MEQ/L
same,SODIUM,"120 h, time 5 day",145.9 MEQ/L
same,TOTAL BILIRUBIN,"120 h, time 5 day",0.17 mg/dL
same,TOTAL PROTEIN,"120 h, time 5 day",5.93 G/DL
same,URIC ACID,"120 h, time 5 day",1.7 mg/dL
